Molecular target: T1, PAR-1 receptor (Homo sapiens, UniProt P25116)
T1 construct: endogenous in cells; host or cells: HEK 293
T1 sequence (P25116 22-425): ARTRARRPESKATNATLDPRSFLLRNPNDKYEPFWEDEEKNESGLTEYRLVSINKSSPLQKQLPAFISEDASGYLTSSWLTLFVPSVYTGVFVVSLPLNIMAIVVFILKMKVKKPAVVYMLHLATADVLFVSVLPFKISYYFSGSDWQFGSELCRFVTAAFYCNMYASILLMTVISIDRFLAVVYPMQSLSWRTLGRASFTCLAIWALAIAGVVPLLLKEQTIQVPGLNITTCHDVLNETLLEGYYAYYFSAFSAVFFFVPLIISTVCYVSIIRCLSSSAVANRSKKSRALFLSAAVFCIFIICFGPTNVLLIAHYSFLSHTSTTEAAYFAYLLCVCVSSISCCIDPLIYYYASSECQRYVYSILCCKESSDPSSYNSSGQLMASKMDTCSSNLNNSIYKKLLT
Experiment: PAR-1 FLIPR Assay
Type: cell-based
Conditions: HEK 293 cells, FLIPR calcium-5 dye; inhibition of signal from PAR1 selective receptor-activating peptide at 80% activation concentration (1.4-2.0 uM); compound incubated 30 minutes at 25 degrees
Experimental: The following assay was used to determine the ability of the inventive compounds to inhibit the PAR-1 receptor.
HEK 293 Cells are grown in media containing DMEM, 10% FBS pen/strep/L-Glutamine and non-essential amino acids. The cells are plated in 384-well PDL coated plates at 12000 cells/well and incubated overnight at 37° C./5% CO2. Media is then removed from the cells, which are then incubated with buffer (Hank's containing HEPES and Chaps) containing FLIPR calcium-5 dye, made with buffer containing probenecid, for 60 minutes at 37° C. Varying concentrations of compound in a final concentration of 5% DMSO are then added to the cells and incubated at 25 degrees for 30 minutes. The plates are then added to a FLIPR Tetra cellular screening system and the device adds a concentration of a PAR1 selective receptor-activating peptide with the sequence Ala-parafluoroPhe-Arg-Cha-Cit-Tyr-NH2 (SEQ ID NO: 3) (prepared in water) at a concentration equal to the effective concentration that achieves 80% activation of signaling on the day of the experiment. The range is from 1.4-2.0 uM peptide. The FLIPR reads at an excitation wavelength of 480 nm and an emission wavelength of 535 nm, and performs 60 scans over a 1-2 min reading time. The data are analyzed by taking the peak signal over a portion of the range of the 60 scans and dividing this signal by the minimum signal for that same range. The data are expressed as percent inhibition of the maximum divided by the minimum signal achieved at 80% activation produced by the PAR1 activating peptide on the test day.

Compound	IC50 [nM]
C[C@@H]1[C@H](/C=C/c2ccc(-c3ccccc3C#N)cn2)[C@H]2[C@@H](CC1(F)F)S(=O)(=O)N[C@@H]2C [Example 8, (3R,3aR,4S,5R,7aR)-4-((E)-2-(5-(2-cyanophenyl)pyridin-2-yl)vinyl)-6,6-difluoro-3,5-dimethyloctahydrobenzo[d]isothiazole-1,1-dioxide]	178
CCOC(=O)C[C@@]12CC(F)(F)[C@@H](C)[C@H](/C=C/c3ccc(-c4ccccc4C#N)cn3)[C@@H]1[C@@H](C)N(C(=O)OC(C)(C)C)S2(=O)=O [Example 26]	54
CC[C@@H]1CC[C@@H]2[C@H]([C@H]1/C=C/c1ccc(-c3ccccc3C#N)cn1)[C@@H](C)N(CCO)S2(=O)=O [Example 29, 2-(6-((E)-2-((3R,3aR,4R,5R,7aR)-5-ethyl-2-(2-hydroxyethyl)-3-methyl-1,1-dioxidooctahydrobenzo[d]isothiazol-4-yl)vinyl)pyridin-3-yl)benzonitrile]	540
COc1ncccc1-c1ccc(/C=C/[C@@H]2[C@@H]3[C@@H](C)N(C(=O)OC(C)(C)C)S(=O)(=O)[C@@H]3CC(F)(F)[C@H]2C)nc1 [Example 13, (3R,3aR,4S,5S,7aR)-tert-butyl 6,6-difluoro-4-((E)-2-(2′-methoxy-[3,3′-bipyridin]-6-yl)vinyl)-3,5-dimethylhexahydrobenzo[d]isothiazole-2(3H)-carboxylate 1,1-dioxide]	278
CC[C@@H]1CC[C@@H]2[C@H]([C@H]1/C=C/c1ccc(-c3ccccc3C#N)cn1)[C@@H](C)N(C)S2(=O)=O [Example 27, 2-(6-((E)-2-((3R,3aR,4R,5R,7aR)-5-ethyl-2,3-dimethyl-1,1-dioxidooctahydrobenzo[d]isothiazol-4-yl)vinyl)pyridin-3-yl)benzonitrile]	13
COc1ncccc1-c1ccc(/C=C/[C@@H]2[C@H]3[C@@H](CC(F)(F)[C@H]2C)S(=O)(=O)N[C@@H]3C)nc1 [Example 1, (3R,3aR,4S,5S,7aR)-6,6-difluoro-4-((E)-2-(2′-methoxy-[3,3′-bipyridin]-6-yl)vinyl)-3,5-dimethyloctahydrobenzo[d]isothiazole 1,1-dioxide]	5.1
CCOC(=O)N1[C@H](C)[C@H]2[C@@H](/C=C/c3ccc(-c4ccccc4C#N)cn3)[C@H](CC)CC[C@H]2S1(=O)=O [Example 28, (3R,3aR,4R,5R,7aR)-ethyl 4-((E)-2-(5-(2-cyanophenyl)pyridin-2-yl)vinyl)-5-ethyl-3-methylhexahydrobenzo[d]isothiazole-2(3H)-carboxylate 1,1-dioxide]	325
CC(=O)N1[C@H](C)[C@H]2[C@@H](/C=C/c3ccc(-c4ccccc4C#N)cn3)[C@@H](C)C(F)(F)C[C@H]2S1(=O)=O [Example 9, 1-((3R,3aR,4S,5R,7aR)-6,6-difluoro-4-((E)-2-(5-(2-cyanophenyl)pyridin-2-yl)vinyl)-3,5-dimethyl-1,1-dioxidohexahydrobenzo[d]isothiazol-2(3H)-yl)ethanone]	564
CC(=O)N1[C@H](C)[C@H]2[C@@H](/C=C/c3ccc(-c4ccccc4C#N)cn3)[C@H](C)C(F)(F)C[C@H]2S1(=O)=O [Example 4, 1-((3R,3aR,4S,5S,7aR)-6,6-difluoro-4-((E)-2-(5-(2-cyanophenyl)pyridin-2-yl)vinyl)-3,5-dimethyl-1,1-dioxidohexahydrobenzo[d]isothiazol-2(3H)-yl)ethanone]	483
C[C@H]1NS(=O)(=O)[C@@H]2CC(F)(F)[C@@H](C)[C@H](/C=C/c3ccc(-c4cccnc4C#N)cn3)[C@@H]21 [Example 2, (3R,3aR,4S,5S,7aR)-6,6-difluoro-4-((E)-2-(2′-cyano-[3,3′-bipyridin]-6-yl)vinyl)-3,5-dimethyloctahydrobenzo[d]isothiazole 1,1-dioxide]	55.8
COc1ncccc1-c1ccc(/C=C/[C@@H]2[C@@H]3[C@@H](C)N(C(=O)OC(C)(C)C)S(=O)(=O)[C@@]3(CC(N)=O)CC(F)(F)[C@H]2C)nc1 [Example 19, (3R,3aR,4S,5S,7aS)-tert-butyl 7a-(2-amino-2-oxoethyl)-6,6-difluoro-4-((E)-2-(2′-methoxy-[3,3′-bipyridin]-6-yl)vinyl)-3,5-dimethylhexahydrobenzo[d]isothiazole-2(3H)-carboxylate 1,1-dioxide]	54
CC[C@@H]1CC[C@@H]2[C@H]([C@H]1/C=C/c1ccc(-c3ccccc3C#N)cn1)[C@@H](C)NS2(=O)=O [Example 10, 2-(6-((E)-2-((3R,3aR,4R,5R,7aR)-5-ethyl-3-methyl-1,1-dioxidooctahydrobenzo[d]isothiazol-4-yl)vinyl)pyridin-3-yl)benzonitrile]	0.97

Results, then the molecule that gave them:

IC50 [nM]	Compound
12	C[C@H]1NS(=O)(=O)[C@]2(C)CC(F)(F)[C@@H](C)[C@H](/C=C/c3ccc(-c4cccnc4C#N)cn3)[C@H]12 [Example 17, (3R,3aR,4S,5S,7aR)-6,6-difluoro-4-((E)-2-(2′-cyano-[3,3′-bipyridin]-6-yl)vinyl)-3,5,7a-trimethyloctahydrobenzo[d]isothiazole 1,1-dioxide]
5	C[C@H]1NS(=O)(=O)[C@]2(CC(N)=O)CC(F)(F)[C@@H](C)[C@H](/C=C/c3ccc(-c4cccc(F)c4)cn3)[C@H]12 [Example 20, 2-((3R,3aR,4S,5S,7aR)-6,6-difluoro-4-((E)-2-(5-(3-fluorophenyl)pyridin-2-yl)vinyl)-3,5-dimethyl-1,1-dioxidooctahydrobenzo[d]isothiazol-7a-yl)acetamide]
12	C[C@H]1NS(=O)(=O)[C@]2(CC(=O)O)CC(F)(F)[C@@H](C)[C@H](/C=C/c3ccc(-c4ccccc4C#N)cn3)[C@H]12 [Example 25, 2-((3R,3aR,4S,5S,7aR)-4-((E)-2-(5-(2-cyanophenyl)pyridin-2-yl)vinyl)-6,6-difluoro-3,5-dimethyl-1,1-dioxidooctahydrobenzo[d]isothiazol-7a-yl)acetic acid]
36.8	COc1ncccc1-c1ccc(/C=C/[C@@H]2[C@@H]3[C@@H](C)NS(=O)(=O)[C@]3(CC(N)=O)CC(F)(F)[C@H]2C)nc1 [Example 18, 2-((3R,3aR,4S,5S,7aR)-6,6-difluoro-4-((E)-2-(2′-methoxy-[3,3′-bipyridin]-6-yl)vinyl)-3,5-dimethyl-1,1-dioxidooctahydrobenzo[d]isothiazol-7a-yl)acetamide]
337	COc1ncccc1-c1ccc(/C=C/[C@@H]2[C@@H]3[C@@H](C)NS(=O)(=O)[C@@]3(CC(N)=O)CC(F)(F)[C@H]2C)nc1 [Example 22, 2-((3R,3aR,4S,5S,7aS)-6,6-difluoro-4-((E)-2-(2′-methoxy-[3,3′-bipyridin]-6-yl)vinyl)-3,5-dimethyl-1,1-dioxidooctahydrobenzo[d]isothiazol-7a-yl)acetamide]
55.1	C[C@H]1NS(=O)(=O)[C@]2(C)CC(F)(F)[C@@H](C)[C@H](/C=C/c3ccc(-c4cccc(F)c4)cn3)[C@H]12 [Example 15, (3R,3aR,4S,5S,7aR)-6,6-difluoro-4-((E)-2-(5-(3-fluorophenyl)pyridin-2-yl)vinyl)-3,5,7a-trimethyloctahydrobenzo[d]isothiazole 1,1-dioxide]

From patent US20170240539A1, “Preparation and Use of Cyclic Sulfonamide Derivatives as PAR-1 Receptor Antagonists” (MERCK SHARP & DOHME CORP., priority 2014, published 2017)
